From patent publication US20250268859A1, “OXAFURAMINE, (1R)-N-ETHYL-1-[(2R)-OXOLAN-2-YL]-2-[…], HYDROCHLORIDE AND DERIVATIVES THEREOF FOR TREATING ALZHEIMER'S DISEASE (AD), […] […], […] WITH LEWY BODIES (DLB), MIXED […], FRON[…] DEGENERATION (FTLD), AND PARKINSON'S DISEASE (PD)” (NLS Pharmaceutics AG, priority 2021, published 2025)

How the values were obtained:
M4 (h) = biological target: T1, M4 (h) (Homo sapiens, UniProt P08173); experiment: Radioligand binding panel, M4 (h) (antagonist radioligand); settings: % inhibition of control specific binding
T1 construct: Eurofins (contract panel)
T1 sequence (P08173 1-479): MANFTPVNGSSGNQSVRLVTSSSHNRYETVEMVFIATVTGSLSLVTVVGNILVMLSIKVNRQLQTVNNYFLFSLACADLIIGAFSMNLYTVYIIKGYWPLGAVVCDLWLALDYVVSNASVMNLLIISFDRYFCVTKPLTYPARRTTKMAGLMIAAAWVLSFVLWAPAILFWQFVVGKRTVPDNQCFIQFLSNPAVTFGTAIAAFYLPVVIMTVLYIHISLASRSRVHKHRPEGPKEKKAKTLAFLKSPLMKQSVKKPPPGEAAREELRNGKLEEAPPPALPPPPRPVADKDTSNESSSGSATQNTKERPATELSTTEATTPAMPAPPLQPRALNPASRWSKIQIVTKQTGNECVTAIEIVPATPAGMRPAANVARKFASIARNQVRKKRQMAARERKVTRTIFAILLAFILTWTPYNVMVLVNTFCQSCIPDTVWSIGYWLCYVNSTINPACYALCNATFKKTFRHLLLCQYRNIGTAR
Procedure: (§1) Oxafuramine is tested at 10^−5 M, calculated as a % inhibition of control specific binding of a radioactively labeled ligand specific for each target.
(§2) This binding profile panel was broadly defined with roughly an equal number of selective, central and peripheral therapeutically relevant targets, including native animal tissues, radioligands and specific enzymes involved in cell cycle regulation in accordance with Eurofins Standard Operating Procedure (www.eurofins.fr).
(§3) For radioligand binding experiments, the half maximal inhibitory concentration (IC50) and the half maximal effective concentration (EC50) values were determined (via computer software) by nonlinear regression analysis of the competition curves using Hill equation curve fitting. The inhibition constants (Ki) were calculated using the Cheng-Prusoff equation (Ki=IC50/(1+(L/KD)), where L is the concentration of radioligand in the assay, and KD is the affinity of the radioligand for the receptor.
(§4) The results are expressed as a % control specific binding ([measured specific binding/control specific binding]×100) and as a % inhibition of control specific binding (100−[(measured specific binding/control specific binding)×100]) obtained in the presence of the test compounds. […]

M5 (h) = biological target: T2, M5 (h) (Homo sapiens, UniProt P08912); experiment: Radioligand binding panel, M5 (h) (antagonist radioligand); settings: % inhibition of control specific binding
T2 construct: Eurofins (contract panel)
T2 sequence (P08912 1-532): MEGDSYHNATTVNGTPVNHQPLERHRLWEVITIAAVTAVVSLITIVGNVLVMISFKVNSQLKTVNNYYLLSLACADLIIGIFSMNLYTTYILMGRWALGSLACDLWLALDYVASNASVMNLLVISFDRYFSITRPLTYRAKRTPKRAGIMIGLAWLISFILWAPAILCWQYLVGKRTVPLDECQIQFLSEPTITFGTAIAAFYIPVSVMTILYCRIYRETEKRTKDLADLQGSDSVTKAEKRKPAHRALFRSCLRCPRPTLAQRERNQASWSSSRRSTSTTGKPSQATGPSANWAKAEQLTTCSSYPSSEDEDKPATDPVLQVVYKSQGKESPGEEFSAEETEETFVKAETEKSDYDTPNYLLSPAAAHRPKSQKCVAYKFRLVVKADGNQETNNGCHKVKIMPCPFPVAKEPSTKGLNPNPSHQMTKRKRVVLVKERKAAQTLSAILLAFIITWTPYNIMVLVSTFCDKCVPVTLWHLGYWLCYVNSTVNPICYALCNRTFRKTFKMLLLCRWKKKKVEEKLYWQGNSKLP
Procedure: as §1, §2, §3, §4

[1] = tested on: memory (recognition of the familiar object) in mice; experiment: Novel Object Recognition (NOR) test in mice; assay type: in vivo, C57BL/6J, male; settings: choice trial, mean, N = 16
Procedure: The test was carried out in circular boxes (30 cm diameter, 40 cm high). The objects to be discriminated (L≈1≈h≈3-4 cm) differed in both color and shape and were referred as yellow duck and blue lego. They were fixed with a magnet to the floor of the boxes at 5 cm of the wall, 20 cm distant. Apparently, they have no natural significance for mice and they have never been associated with a reinforcement. In order to rule out the possibility of scent traces left on the objects and therefore the dependency of the recognition capacity of mice on the olfactory cue, the objects and the ground of the box were washed with an odorless disinfectant (Sanicid® diluted in water) and dried between each trial. A camcorder was fixed to the ceiling above the box to record the animals' activity. The experiment was analyzed blindly at a later time.
On the week before the test, animals were handled by the experimenter in charge of the experiment in order to be not stressed at the time of testing. For this purpose, the experimenter placed a small amount of litter, and then the mouse on its hand.
The NOR test was completed over five days (see FIG. 1): • Day 1: Habituation trial. Animals were individually placed for a 15-min free exploration session in empty open boxes. • Day 2. Treatment administration and sample trial. […] They were individually placed 30 min after in the apparatus for a 6-min session with two identical objects (Duck, 50% of animals or Lego, 50% of animals). • Day 3. Choice trial. The mice were individually placed for a 6-min session in the apparatus with two objects (Duck and Lego), one of the objects presented in sample trials (termed as familiar objects) and a novel object (Lego, 50% of animals or Duck, 50% of animals).
The sample and choice trials were recorded with the camera located above the apparatus. The time spent by mice in exploring the objects was measured during the sample trial and the choice trial. Exploration of an object was defined as follows: directing the nose to the object at a distance≤2 cm and/or touching it with the nose or forelimbs; turning around or biting the object, or sitting on the object were not considered as exploratory behavior.
• L=exploration time of the left object in the sample trial. • R=exploration time of the right object in the sample trial. • N=exploration time of the new object in the choice trial. • F=exploration time of the familiar object in the choice trial.
• Exploration indices: • ST=L+R=exploration time (left object+right object) in the sample trial. • CT=N+F=exploration time (new object+familiar object) in the choice trial. • Two memory indices: • N-F=difference of exploration time between the new object and the familiar object in the choice trial.
Statistical analyses: • Read-outs: DI, N-F, ST, CT, N, F • Unpaired Student's t test: Donep 2 group vs. Control group. • One-way ANOVA, Dunnett test: • NLS-12 groups vs. Control group. • NLS-12 groups vs. Donep 2 group. • Read-outs: DI and N-F, for all groups, paired Student's t test, difference vs. 0. • Body weight: one-way ANOVA.

Structure (SMILES): CCN[C@H](Cc1ccccc1)[C@H]1CCCO1 [Oxafuramine, (1R)—N-ethyl-1-[(2R)-oxolan-2-yl]-2-phenylethanamine]
- inhibition at 10 µM (M4 (h); 10^−5 M): ~51%
- % Inhibition at 10^−5M, M4 (h) (antagonist radioligand) (M4 (h)): 50.8%
- inhibition at 10 µM (M5 (h); 10^−5 M): ~25%
- % Inhibition at 10^−5M, M5 (h) (antagonist radioligand) (M5 (h)): 25.4%
- F Exploration time of familiar object ([1]; NLS-12 1 mg/kg i.p.): 12.0 s
- N Exploration time of novel object ([1]; NLS-12 1 mg/kg i.p.): 12.6 s
- F Exploration time of familiar object ([1]; NLS-12 4 mg/kg i.p.): 11.0 s
- N Exploration time of novel object ([1]; NLS-12 4 mg/kg i.p.): 14.7 s
- F Exploration time of familiar object ([1]; NLS-12 8 mg/kg i.p.): 9.9 s
- N Exploration time of novel object ([1]; NLS-12 8 mg/kg i.p.): 15.9 s
